{"source": "patent EP3335764A1", "about": "“A STRAIN OF A[…] APPLICATIONS THEREOF” (Infinitec Activos S.L., priority 2016, dated 2018)", "system": "Prostaglandin E2 (PGE2)", "assay": "Anti-inflammatory activity: PGE2 quantification by ELISA in cells stimulated by IL-1α", "format": "cell-based", "conditions": "IL-1α (5 pM), Cycloheximide 100 µg/ml", "protocol": "When cells are stimulated by an inflammatory agent PGE2 is synthesized de novo and released into the extracellular space. Thus quantification of PGE2 is used to asses the anti-inflammatory activity products.\nIn the present example the anti-inflammatory activity of the extract of example 2 was determined by quantification of PGE2 in cells stimulated by IL-1α using a kit for an enzyme-linked immunosorbent assay (ELISA). The kit used was Prostaglandin E2 EIA kit Item n° 514010 from Cayman Chemical.\nProstaglandin E2 assay is based on competition between the PGE^2 to be determined and a fixed amount of added PGE2-acetylcholinesterase (AChE) conjugate (PGE2 tracer) for a limited amount of PGE2 monoclonal antibody. The amount of PGE2 tracer able to bind the PGE2 monoclonal antibody will be inversely proportional to the concentration of PGE2 in the well. Both the antibody-PGE2 complex and then antibody-PGE2 tracer complex bind to polyclonal goat anti-mouse IgG previously bound to the well. Then the plate is washed to remove any unbound reagent and Ellman's reagent is added to determine the amount of AChE bound to the well. […] The intensity of this color, determined by UV-Vis spectrophotometry, is proportional to the amount of PGE2 tracer bound […], which is inversely proportional to the amount of PGE2 present in the free well during incubation."}
{"compound": "C[C@@H]1C[C@@H]([C@H](O)CC2CC(=O)NC(=O)C2)C(=O)[C@@H](C)C1", "note": "[Cycloheximide]", "values": [{"measurement": "PGE2", "result": 31.85, "unit": "pg/mL"}, {"measurement": "inhibition at 100 µg/mL", "result": 97.6, "unit": "%"}]}
